Series [1] has as its system adjuvant arthritis. As to the kind of experiment: Adjuvant-induced arthritis in rats, paw swelling of both hind legs, therapeutic dosing (Test Example 2). The class given is in vivo, Lewis male rat. The settings on record: oral once a day for 7 days from day 18, 25th day; for Swelling rate: average of both hind legs; for Inhibition rate: vs control swelling rate. The procedure:
A suspension of dead Mycobacterium tuberculosis in liquid paraffin (0.6 mg/0.1 mL) was intradermally injected to the base of tail of each Lewis male rat to induce adjuvant arthritis. On the 18th day after the induction of arthritis, the paw volumes of both hind legs were measured. The rats were grouped so that the paw volumes of both hind legs averaged out per group. The test substances were separately suspended or dissolved in 0.5% aqueous methylcellulose solutions to prepare dosing solutions, which were orally administered once a day for 7 days from the grouping date. In the case of combined administration, both test substances were simultaneously administered through an oral route.
The dose of iguratimod was set to 1 mg/kg, while the dose of prednisolone was set to 5 mg/kg. Alternatively, 1 mg/kg iguratimod and 5 mg/kg prednisolone were orally administered in combination.
1 mL of 0.5% aqueous methylcellulose solution per 100 g of body weight was orally administered to a control group that received no test substance after the grouping.
On the day after the final administration (on the 25th day after the induction of arthritis), the paw volumes of both hind legs were measured for each group. Subsequently, the rats were killed by blood removal. Then, their thymus glands, spleens, and adrenal glands were extirpated, and the weights were measured to calculate the ratio of each organ weight to 100 g body weight.

The subject of series [2] is adjuvant arthritis. As to the kind of experiment: Adjuvant-induced arthritis in rats, paw swelling of left hind leg (Test Example 1). The settings on record: oral once a day for 21 days; for Swelling rate: left hind leg, 21st day after arthritis induction; for Inhibition rate: vs control swelling rate, 21st day. The class given is in vivo, Lewis male rat. The procedure:
A suspension of dead Mycobacterium tuberculosis in liquid paraffin (0.6 mg/0.1 mL) was intradermally injected in the plantar region of left hind paw of each Lewis male rat to induce adjuvant arthritis. The paw volumes of both hind legs were measured using a plethysmometer on a daily basis from before to after the induction of arthritis. The test substances were separately suspended or dissolved in 0.5% aqueous methylcellulose solutions to prepare dosing solutions, which were orally administered once a day for 21 days from immediately after the adjuvant injection. In the case of combined administration, both test substances were simultaneously administered.
The dose of iguratimod was set to 3 mg/kg, while the dose of methotrexate was set to 0.1 mg/kg. Alternatively, 3 mg/kg iguratimod and 0.1 mg/kg methotrexate were administered in combination.
1 mL of 0.5% aqueous methylcellulose solution per 100 g of body weight was orally administered to an untreated normal group and a control group that received no test substance after the induction of arthritis.
On the day after the final administration (on the 21st day after the induction of arthritis), the paw volume of the left hind leg was measured for each group. Subsequently, peripheral blood was collected therefrom, and the reticulocyte count was measured.

Series [3] concerns HepG2 cells. The settings on record: human, 24 h.
Protocol: (§1) HepG2 cells floating in a Dulbecco's modified Eagle's medium (DMEM) containing 10% fetal bovine serum (FBS) were inoculated at a concentration of 3.5×10^4 cells/0.1 mL/well to a 96-well plate and cultured at 37° C. for approximately 24 hours in a 5% CO2 atmosphere. Then, the medium was replaced by DMEM containing iguratimod and methotrexate and containing 0.5% FBS, and the cells were further cultured therein for 24 hours. In this context, iguratimod was dissolved in a 1.12-fold molar quantity of 0.1 mol/L sodium hydroxide solution, diluted with distilled water, and then added to the culture solution. Methotrexate was dissolved in dimethyl sulfoxide (DMSO) and added to the culture solution. Test substance-free DMEM containing 0.25% DMSO and 0.5% FBS was used in a control group.
(§2) After the completion of culture, each culture supernatant was separated, and the activity of lactate dehydrogenase (LDH) released outside the cells was determined using Cytotoxicity Detection Kit (LDH) (Roche Applied Science). In order to determine LDH activity in the whole cells, 0.1 mL of DMEM containing 2% Triton X-100 and 0.5% FBS was then added to each well after the culture supernatant separation to prepare a cell lysate. The LDH activity was determined in the same way as above.
(§3) The rate of LDH release (%) was calculated according to the formula shown below and indicated by the average value of each group. Its ratio with respect to the control group was also determined. Rate of LDH release (%)=Activity in the culture supernatant/(Activity in the culture supernatant+Activity in the cell lysate)×100
The test system of series [4] is HepG2 cells. As to the kind of experiment: Cellular damage of HepG2 cells, LDH release (Test Example 3). The settings on record: iguratimod 0, HepG2, 24 hours; for Rate of LDH release: control 14.2. For orientation: LDH in the medium is a marker of cell lysis.
Protocol: as §1, §2, §3

Consider three compounds from US9421186B2, “Method for improving therapy for autoimmune diseases such as rheumatoid arthritis” (priority 2012, dated 2016).

Read-outs that look alike come from different tables or passages of the source.

Consider `C[C@]12C=CC(=O)C=C1CC[C@@H]1[C@@H]2[C@@H](O)C[C@@]2(C)[C@H]1CC[C@]2(O)C(=O)CO` [Prednisolone, prednisolone], for which, in the series on adjuvant arthritis [1] (prednisolone 5 mg/kg), the Swelling rate is listed as 66% and the Inhibition rate is 37%.

In the case of `CS(=O)(=O)Nc1cc2occ(NC=O)c(=O)c2cc1Oc1ccccc1` [Iguratimod, N-[7-[(methanesulfonyl)amino]-4-oxo-6-phenoxy-4H-1-benzopyran-3-yl]formamide], in the series with adjuvant arthritis [1] (iguratimod 1 mg/kg), the Swelling rate is given as 76% and the Inhibition rate was determined as 28%. For the same compound, in the series with adjuvant arthritis [2] (iguratimod 3 mg/kg), the Swelling rate is recorded as 93% and the Inhibition rate is recorded as 40%. Further, in the series on HepG2 cells [3] (3 μg/mL), the “Rate of LDH release” value turned out to be 15.9% and the “Rate of LDH release, ratio to control group” value (shortened to “Rate of LDH release, ratio”) came out at 112%. Moreover, in the series with HepG2 cells [3] (30 μg/mL), the “Rate of LDH release” value turned out to be 17.0% and the “Rate of LDH release, ratio” value came to 120%.

Take `CN(Cc1cnc2nc(N)nc(N)c2n1)c1ccc(C(=O)N[C@@H](CCC(=O)O)C(=O)O)cc1` [Methotrexate, methotrexate]: in the series with HepG2 cells [4] (methotrexate 1 μg/mL), the “Rate of LDH release, ratio” value worked out at 172% and the “Rate of LDH release” value was 24.4%. In the series with HepG2 cells [4] (methotrexate 10 μg/mL), the “Rate of LDH release, ratio” value is recorded as 189% and the “Rate of LDH release” value is on record as 26.8%. In the series with adjuvant arthritis [2] (methotrexate 0.1 mg/kg), the Swelling rate turned out to be 114% and the Inhibition rate is 26%.
